The results in this text go back to ChEMBL document CHEMBL1201862, “PubChem BioAssay data set” (2004).

Several values for one entry are separate records, joined by “and”; a condition that tells them apart may be missing. Identical values can stand only once.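 Each compound was tested at five concentrations against cells in 96-well plates for 48 hours. GI50 = concentration required for 50% inhibition of growth.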 Activity calls are given as the source filed them. Cut-off read from the data, not from the text of the source: active = GI50 up to about 1.1 µM and inactive = higher. Non-standard residues stand in square brackets, D forms with d. Residues, ends and D or L forms follow the SMILES beside them. *: point of attachment. Benzoyl(4-OMe) = COc1ccc(C(=O)*)cc1; 2Thi = N[CH](Cc1cccs1)C(=O)O

Some test systems named below: 786-0; K562; UACC-257; A549; T47D; LOX IMVI; SK-OV-3; MDA-MB-435; OVCAR-8; SF-295; HT-29; NCI-H460; SN12C; HCT-15; A498; MCF7; IGROV-1; HOP-92.
Holding throughout (assay): DTP human tumour cell line panel, 48 h

Consider `CCC(C)C(NC(=O)C(Cc1cccs1)NC(=O)C(CC(C)C)NC(=O)C(CC(C)C)NC(=O)C(CCCCN)NC(=O)C(CCCNC(=N)N)NC(=O)c1ccc(OC)cc1)C(=O)NC(CC(C)C)C(N)=O` (stereo unspecified) ({Benzoyl(4-OMe)}-RKLL[2Thi]IL-NH2; configuration not given here), for which the GI50 in the test with 786-0, in the test with K562, with UACC-257, in the test on A549, in the test with T47D and in the test on LOX IMVI was > 100 µM (inactive) in each case. The GI50 in the test with SK-OV-3, with MDA-MB-435, with OVCAR-8, in the test with SF-295, with HT-29 and in the test with NCI-H460 was > 100 µM (inactive) in each case. The GI50 (commonly the concentration that inhibits growth by half) with SN12C is > 100 µM (inactive); in the test on HCT-15 it was over 100 µM; in the test with A498, > 100 µM (inactive); with MCF7 it was > 100 µM (inactive).
On to `CS(=O)(=O)O[C@H]1CN2C[C@@H](O)[C@@H](O)[C@H]2[C@H]1CO.[B]`, for which the GI50 with 786-0, in the test on IGROV-1, in the test on K562, in the test with UACC-257, with A549 and in the test with T47D was > 100 µM (inactive) each time. The GI50 with LOX IMVI, with SK-OV-3, with MDA-MB-435, with OVCAR-8, with SF-295 and in the test with HT-29 was > 100 µM (inactive) throughout. Moreover, the GI50 in the test on NCI-H460 is > 100 µM (inactive); in the test with HCT-15, over 100 µM; with A498, > 100 µM (inactive); with MCF7, > 100 µM (inactive).
As for `O=C(NNC(=O)c1ccccc1O)c1cccc(Br)c1`, the GI50 in the test with 786-0 is 44.9 µM (inactive); in the test with IGROV-1 it was 18.3 µM (inactive); in the test with K562, 46.7 µM (inactive); in the test with UACC-257, > 77.6 µM (inactive); in the test on A549, 25.5 µM (inactive); with T47D, > 51.6 µM (inactive). The GI50 with LOX IMVI is 15.2 µM (inactive); with SK-OV-3, 54.1 µM (inactive); with MDA-MB-435 it was 37.9 µM (inactive); in the test on OVCAR-8, 20.9 µM (inactive); with SF-295, 27.3 µM (inactive); in the test on HT-29, 43 µM (inactive). The GI50 in the test with NCI-H460 is 8.43 µM (inactive); in the test on SN12C, 98.9 µM (inactive); in the test on HCT-15 it was 6.85 µM; in the test with A498 it was > 92.9 µM (inactive); in the test on MCF7, 6.71 µM (inactive).
For `CCCCCCCCCCCC(=O)c1c(O)cc(C)oc1=O`, the GI50 in the test on 786-0 was 80.9 µM (inactive); in the test with IGROV-1 it was 55.5 µM (inactive); with K562 it was 28.6 µM (inactive); in the test on UACC-257, 57.9 µM (inactive); in the test with A549, 27.8 µM (inactive); with T47D, 34.8 µM (inactive). The GI50 is 28.1 µM (inactive) in the test on LOX IMVI; 64.6 µM (inactive) in the test with SK-OV-3; 49.5 µM (inactive) in the test with MDA-MB-435; 33.5 µM (inactive) with OVCAR-8; 42.8 µM (inactive) in the test with SF-295; 66.7 µM (inactive) with HT-29. Moreover, the GI50 is 57.4 µM (inactive) with NCI-H460; 33.3 µM (inactive) in the test on SN12C; 41.7 µM with HCT-15; 81.8 µM (inactive) with A498; 37.8 µM (inactive) with MCF7.
For the molecule `CC(=O)NC(Cc1c[nH]cn1)C(=O)N1CCCC1C(N)=O` (stereo unspecified), the GI50 with 786-0, in the test on IGROV-1, in the test on K562, in the test on A549, in the test on T47D and in the test on LOX IMVI was > 100 µM (inactive) throughout. Also, the GI50 in the test on SK-OV-3, with MDA-MB-435, in the test on OVCAR-8, in the test with HOP-92, in the test on SF-295 and in the test on HT-29 was > 100 µM (inactive) throughout. The GI50 was > 100 µM (inactive) in the test on NCI-H460, > 100 µM (inactive) in the test with SN12C, over 100 µM with HCT-15 and > 100 µM (inactive) with MCF7.
With `O=c1ccn(C2OC(CO)C(O)C2F)c(=O)n1Cc1ccccc1` (stereo unspecified), the GI50 with 786-0, in the test on IGROV-1, in the test on K562, with UACC-257, in the test with A549 and in the test with T47D was > 100 µM (inactive) in each case. Moreover, the GI50 in the test on LOX IMVI was > 100 µM (inactive); in the test with MDA-MB-435, > 100 µM (inactive); in the test on OVCAR-8 it was > 100 µM (inactive); in the test with SF-295, > 100 µM (inactive); in the test on HT-29 it was > 100 µM (inactive); in the test on NCI-H460, > 10 µM (inactive). Besides, the GI50 with SN12C was > 100 µM (inactive); with HCT-15 it was over 100 µM; in the test with MCF7 it was > 100 µM (inactive).
As for `N=C(N)c1ccc(/N=N\c2c(O)ccc3cc4c(/N=N\c5ccc(C(=N)N)cc5)c(O)ccc4cc23)cc1`, the GI50 is 49 µM (inactive) with 786-0; 51.5 µM (inactive) in the test with IGROV-1; 31.2 µM (inactive) with K562; > 100 µM (inactive) in the test on UACC-257; > 100 µM (inactive) with A549; 96.8 µM (inactive) in the test on T47D. The GI50 with SK-OV-3 was > 100 µM (inactive); in the test on MDA-MB-435, > 100 µM (inactive); with OVCAR-8 it was 80.4 µM (inactive); in the test with HOP-92, > 100 µM (inactive); with SF-295, 50.8 µM (inactive); with HT-29, 75.9 µM (inactive). Also, the GI50 with NCI-H460 was 40.7 µM (inactive); with SN12C, > 100 µM (inactive); in the test with HCT-15 it was 56 µM; in the test with MCF7, 87.9 µM (inactive).
For `O=c1c2ccccc2[nH]c2c(Cl)cc(Cl)c(N3CCCCC3)c12`, the GI50 in the test with 786-0 is > 10 µM (inactive); in the test on IGROV-1, 18.6 µM (inactive); in the test with K562 it was > 10 µM (inactive); with UACC-257, 39.1 µM (inactive); in the test on A549, 33.2 µM (inactive); in the test on T47D, 50.6 µM (inactive). For the same molecule, the GI50 in the test with LOX IMVI was 41.6 µM (inactive); in the test with SK-OV-3, 62.4 µM (inactive); in the test with MDA-MB-435 it was 22.8 µM (inactive); in the test on OVCAR-8 it was 40 µM (inactive); with SF-295, 32.4 µM (inactive); with HT-29 it was 16 µM (inactive). For the same molecule, the GI50 was 22.1 µM (inactive) in the test with SN12C, 44.8 µM in the test on HCT-15, 28.3 µM (inactive) in the test on A498 and 20.7 µM (inactive) with MCF7.
Turning to `N#Cc1c(-c2ccccc2)c(C#N)c(=S)n(C2OCC(O)C(O)C2O)c1N` (stereo unspecified), the GI50 is > 100 µM (inactive) in the test on 786-0; > 100 µM (inactive) in the test on IGROV-1; > 100 µM (inactive) with K562; > 100 µM (inactive) in the test with UACC-257; > 100 µM (inactive) in the test with A549; 75.9 µM (inactive) and 77.4 µM (inactive) in the test on T47D. The GI50 in the test with LOX IMVI, in the test with SK-OV-3, with MDA-MB-435, with OVCAR-8, in the test on SF-295 and in the test on HT-29 was > 100 µM (inactive) in each case. The GI50 with NCI-H460 was > 100 µM (inactive); in the test with SN12C, > 100 µM (inactive); with HCT-15, over 100 µM; in the test on A498, > 100 µM (inactive); with MCF7, > 100 µM (inactive).
